Measurements published in PMC5467912, “Asymmetric regulation of quorum-sensing receptors drives autoinducer-specific gene expression programs in Vibrio cholerae” (PLoS Genetics, 2017).
Several values for one entry are separate records, joined by “and”; a condition that tells them apart may be missing. Equal values may be shown once.

System: CqsS-mKATE2
Assay: Qrr4 regulation of CqsS-mKATE2 translational fusion, anhydrous tetracycline-inducible qrr4 (S4 Fig)
Type: cell-based, E. coli
Description: We examined whether Qrr regulation of CqsS is direct or indirect using a CqsS-mKATE2 translational fusion in E. coli expressing inducible qrr4. We reasoned that, if CqsS production is controlled by Qrr4, repression of CqsS-mKATE2 should occur when Qrr4 is induced. We verified that our system works by showing that inducible Qrr4 is capable of repressing a previously-identified direct target, VCA0107-GFP [24]. However, no repression of CqsS-mKATE2 occurred following induction of Qrr4 (S4 Fig).
To assay qrr4 regulation of cqsS, the relative fluorescence of translational fusions (VCA0107B-GFP and CqsS-mKATE2) was measured in E. coli BWR1. E. coli carrying one of these plasmids also contained either an empty plasmid (pZA31) or pZA31 carrying anhydrous tetracycline-inducible qrr4. Qrr4-mediated repression of CqsS-mKATE2 was assessed. VCA0107-GFP is a known Qrr4-repressed target and was used as a positive control to show the system was functional. Overnight cultures were diluted 1:50 into fresh medium and aliquotted in triplicate into 96 well plates. […] OD600 and fluorescence were assessed using an Envision 2103 Multilabel Reader (Perkin Elmer).
Supplementary file pgen.1006826.s008.tiff: S4 Fig Qrr4 indirectly regulates cqsS. Fluorescence from plasmid-encoded VCA0107-GFP (circles) and CqsS-mKATE2 (squares) was measured in E. coli. Either an empty vector (pZA31-lucNB, black) or pZA31-lucNB carrying tetracycline-inducible qrr4 (pYS245, red) was present in each strain. VCA0107 encodes a type VI secretion system component that is regulated by Qrr4. Data represent two experiments conducted in triplicate. Error bars represent standard errors of the mean. (TIFF) Click here for additional data file.

Q: With `Cc1c2c(c(O)c3c(O)cccc13)C(=O)[C@]1(O)C(=O)C(C(N)=O)=C(O)[C@@H](N(C)C)[C@@H]1C2` [aTc] as the molecule, how does the “Relative reporter signal, experimental averages” value (pCqsS Qrr4, aTc 0.0976562 ng/ml (normalization point)) read?
A: The value was 1.

Q: What about the “Relative reporter signal, experimental averages” value (pCqsS Qrr4, aTc 0.195312 ng/ml, normalized to 0.0976562 ng/ml) of the same molecule?
A: Its value is 0.9161 and 1.022 and 1.111.

Q: What about the “Relative reporter signal, experimental averages” value (pCqsS Qrr4, aTc 0.390625 ng/ml, normalized to 0.0976562 ng/ml) of the same molecule?
A: Its value is 0.9447 and 1.099 and 1.082.

Q: And the “Relative reporter signal, experimental averages” value (pCqsS Qrr4, aTc 0.78125 ng/ml, normalized to 0.0976562 ng/ml)?
A: Its value is 0.9451 and 1.129 and 1.056.

Q: And the “Relative reporter signal, experimental averages” value (pCqsS Qrr4, aTc 1.5625 ng/ml, normalized to 0.0976562 ng/ml)?
A: The value was 1.068 and 1.16 and 0.9801.

Q: And the “Relative reporter signal, single replicates” value (pCqsS Qrr4, aTc 3.125 ng/ml)?
A: Its value is 1.44 and 0.9097 and 1.127 and 0.956.

Q: What about the “Relative reporter signal, experimental averages” value (pCqsS Qrr4, aTc 3.125 ng/ml, normalized to 0.0976562 ng/ml) of the same molecule?
A: The value was 1.078 and 1.159 and 0.9843.

Q: And the “Relative reporter signal, single replicates” value (pCqsS Qrr4, aTc 6.25 ng/ml)?
A: The value was 1.264 and 1.158 and 1.22 and 0.881 and 1.097 and 1.0668 and 1.093 and 0.9121 and 1.019.

Q: And the “Relative reporter signal, experimental averages” value (pCqsS Qrr4, aTc 6.25 ng/ml, normalized to 0.0976562 ng/ml)?
A: The value was 1.008 and 1.214 and 1.015.

Q: What about the “Relative reporter signal, single replicates” value (pCqsS Qrr4, aTc 12.5 ng/ml) of the same molecule?
A: The value was 1.4702 and 1.295 and 1.361 and 0.8302 and 0.9914 and 0.8969 and 1.079 and 1.208 and 0.9918.

Q: What about the “Relative reporter signal, experimental averages” value (pCqsS Qrr4, aTc 12.5 ng/ml, normalized to 0.0976562 ng/ml) of the same molecule?
A: Its value is 1.093 and 1.376 and 0.9062.

Q: And the “Relative reporter signal, single replicates” value (pCqsS Qrr4, aTc 25 ng/ml)?
A: The value was 1.547 and 1.293 and 1.267 and 0.9302 and 0.911 and 0.8369 and 1.15 and 1.125 and 1.107.

Q: What about the “Relative reporter signal, experimental averages” value (pCqsS Qrr4, aTc 25 ng/ml, normalized to 0.0976562 ng/ml) of the same molecule?
A: Its value is 1.127 and 1.369 and 0.8927.

Q: What about the “Relative reporter signal, single replicates” value (pCqsS Qrr4, aTc 50 ng/ml) of the same molecule?
A: The value was 1.539 and 1.282 and 1.3008 and 0.9601 and 0.9046 and 0.8156 and 1.287 and 1.24 and 0.9722.

Q: What about the “Relative reporter signal, experimental averages” value (pCqsS Qrr4, aTc 50 ng/ml, normalized to 0.0976562 ng/ml) of the same molecule?
A: The value was 1.167 and 1.374 and 0.8934.

Q: And the “Relative reporter signal, single replicates” value (pCqsS Qrr4, aTc 100 ng/ml)?
A: The value was 1.525 and 1.187 and 1.2288 and 1.039 and 0.9388 and 0.8346 and 1.105 and 1.41 and 1.043.

Q: What about the “Relative reporter signal, experimental averages” value (pCqsS Qrr4, aTc 100 ng/ml, normalized to 0.0976562 ng/ml) of the same molecule?
A: The value was 1.186 and 1.313 and 0.9374.

Q: What about the “Relative reporter signal, single replicates” value (pCqsS Qrr4, aTc 200 ng/ml) of the same molecule?
A: The value was 1.816 and 1.134 and 1.357 and 1.246 and 1.145 and 0.8992 and 1.196 and 1.432 and 1.656.

Q: And the “Relative reporter signal, experimental averages” value (pCqsS Qrr4, aTc 200 ng/ml, normalized to 0.0976562 ng/ml)?
A: The value was 1.428 and 1.436 and 1.096.

Q: And the “Relative reporter signal, experimental averages” value (pCqsS vector, aTc 0.0976562 ng/ml (normalization point))?
A: The value was 1.

Q: What about the “Relative reporter signal, experimental averages” value (pCqsS vector, aTc 0.195312 ng/ml, normalized to 0.0976562 ng/ml) of the same molecule?
A: The value was 1.035 and 0.9136.

Q: What about the “Relative reporter signal, experimental averages” value (pCqsS vector, aTc 0.390625 ng/ml, normalized to 0.0976562 ng/ml) of the same molecule?
A: Its value is 1.0872 and 0.9606.

Q: And the “Relative reporter signal, experimental averages” value (pCqsS vector, aTc 0.78125 ng/ml, normalized to 0.0976562 ng/ml)?
A: Its value is 0.9727 and 0.9156.

Q: What about the “Relative reporter signal, experimental averages” value (pCqsS vector, aTc 1.5625 ng/ml, normalized to 0.0976562 ng/ml) of the same molecule?
A: The value was 1.033 and 0.9687.

Q: What about the “Relative reporter signal, single replicates” value (pCqsS vector, aTc 3.125 ng/ml) of the same molecule?
A: The value was 1.095 and 1.006 and 1.033 and 1.049 and 1.037 and 0.9455.

Q: What about the “Relative reporter signal, experimental averages” value (pCqsS vector, aTc 3.125 ng/ml, normalized to 0.0976562 ng/ml) of the same molecule?
A: The value was 1.045 and 1.01.

Q: And the “Relative reporter signal, single replicates” value (pCqsS vector, aTc 6.25 ng/ml)?
A: Its value is 1.025 and 0.9971 and 1.015 and 1.078 and 0.9309 and 0.9316.

Q: And the “Relative reporter signal, experimental averages” value (pCqsS vector, aTc 6.25 ng/ml, normalized to 0.0976562 ng/ml)?
A: Its value is 1.0121 and 0.9801.

Q: And the “Relative reporter signal, single replicates” value (pCqsS vector, aTc 12.5 ng/ml)?
A: The value was 1 and 0.9215 and 1.059 and 1.011 and 1.014 and 0.8976.

Q: And the “Relative reporter signal, experimental averages” value (pCqsS vector, aTc 12.5 ng/ml, normalized to 0.0976562 ng/ml)?
A: Its value is 0.9936 and 0.9741.

Q: And the “Relative reporter signal, single replicates” value (pCqsS vector, aTc 25 ng/ml)?
A: The value was 0.9696 and 0.9738 and 0.9202 and 1.059 and 1.016 and 0.9126.

Q: What about the “Relative reporter signal, experimental averages” value (pCqsS vector, aTc 25 ng/ml, normalized to 0.0976562 ng/ml) of the same molecule?
A: The value was 0.9545 and 0.9958.

Q: And the “Relative reporter signal, single replicates” value (pCqsS vector, aTc 50 ng/ml)?
A: Its value is 0.9232 and 0.9361 and 1.0359 and 1.102 and 1.073 and 0.9182.

Q: What about the “Relative reporter signal, experimental averages” value (pCqsS vector, aTc 50 ng/ml, normalized to 0.0976562 ng/ml) of the same molecule?
A: The value was 0.965 and 1.031.

Q: And the “Relative reporter signal, single replicates” value (pCqsS vector, aTc 100 ng/ml)?
A: The value was 0.9506 and 0.9792 and 0.9909 and 1.135 and 1.123 and 0.9303.

Q: And the “Relative reporter signal, experimental averages” value (pCqsS vector, aTc 100 ng/ml, normalized to 0.0976562 ng/ml)?
A: Its value is 0.9736 and 1.063.

Q: And the “Relative reporter signal, single replicates” value (pCqsS vector, aTc 200 ng/ml)?
A: The value was 1.017 and 1.029 and 1.01 and 1.335 and 1.085 and 1.09.

Q: What about the “Relative reporter signal, experimental averages” value (pCqsS vector, aTc 200 ng/ml, normalized to 0.0976562 ng/ml) of the same molecule?
A: Its value is 1.019 and 1.17.
